Experimental findings from US20250066290A1, “DHODH INHIBITORS CONTAINING A CARBOXYLIC ACID BIOISOSTERE” (IMMUNIC AG, priority 2021, published 2025) are described below.

≈ marks a conversion by molar mass, not a printed value. Read-outs that look alike come from different tables or passages of the source.

Data set [1] deals with human URAT1 uptake transporter (Homo sapiens (Human), UniProt Q96S37). Kind of data set: Human URAT1 uptake transporter assay (MDCKII-URAT1-LV, SOLVO). Conditions: 10 μM compound, 20 μM uric acid probe substrate. In kind it is cell-based. How it is done: In the human URAT1 uptake transporter assay (host cell line: MDCKII), the accumulation of the probe substrate in the presence of a DHODH inhibitor (at a concentration of 10 μM) into cells was measured. The assay was executed at SOLVO with catalogue number MDCKII-URAT1-LV. 20 μM uric acid served as probe substrate. Reference inhibitor was benzbromarone at a concentration of 300 μM, which served as internal control.

Data set [2] concerns Caco-2 monolayer. Nature of the data set: A-B and B-A permeability (Caco-2, pH 7.4/7.4). The class given is in vitro ADME, human. To be noted: Caco-2, pH 7.4. The text has this: (§1) The Caco-2 cell line is a human colon adeno-carcinoma cell line that differentiates in culture and resembles the epithelial lining of the human small intestine. […]
For orientation: Passage across Caco-2 layers is used to estimate intestinal permeability.

For data set [3] the following is noted: pH 7.4.
Data set [4] can be described thus: Partition coefficient log D (n-octanol/PBS at pH 7.4). The class given is physicochemical. Conditions: pH 7.4. The procedure: The total amount of compound was determined as the peak area of the principal peak in a calibration standard (100 μM) containing organic solvent (MeOH/water, 60/40 v/v). The amount of compound in buffer was determined as the combined, volume-corrected and weighted areas of the corresponding peaks in the aqueous phases of three organic-aqueous samples of different composition. An automated weighting system was used to ensure the preferred use of raw data from those samples with well quantifiable peak signals. The amount of compound in organic was calculated by subtraction.
Subsequently, the partition coefficient (log D, n-octanol/PBS at pH 7.4) was calculated as the Log10 of the amount of compound in the organic phase divided by the amount of compound in the aqueous phase (Eurofins Discovery Services Item #417).

Data set [5] relates to SARS-CoV-2. Nature of the data set: SARS-CoV-2 viral replication (YFP) assay. To be noted: Severe acute respiratory syndrome coronavirus 2, read-out: EC50 range. The class given is cell-based.
For data set [6], the system named is human rhinovirus HRV-14. Kind of data set: Antiviral activity on human rhinovirus. To be noted: Rhinovirus B, HRV14. The class given is cell-based.
Data set [7] can be described thus: Mouse pharmacokinetics, male and female, cassette dosing. In kind it is in vivo, mice (C57BL/6J). To be noted: for AUC / Cmax / half-life: C57BL/6J, mouse, in vivo; for AUC: 0 to 24 h; for Cmax: 5 mg/kg oral, 1 mg/kg intravenous cassette; for F: bioavailability. How it is done:
The pharmacokinetics of the compounds of the present invention was evaluated in 3 male and 3 female mice (C57BL/6J, 8 week old) after oral or intravenous cassette dosing to assess the oral bioavailability. Dose was 5 mg/kg (oral) and 1 mg/kg (intravenous), application volume was 5 mL/kg (oral) and 0.5 mL/kg (intravenous), vehicle was 5% solutol, 95% NaCl solution (at 0.9% saline concentration) for oral and 5% solutol, 5% ethanol, 90% NaCl solution (at 0.9% saline concentration) for intravenous. At each designated time point (0.5, 1, 2, 4, 8 and 24 h after dosing), 20 μL whole blood were collected from the tail vein into Li-heparin tubes, frozen on dry ice within 1-2 minutes of sampling and stored at −20° C. until processed for LC-MS analysis.

Data set [8] is described as follows: A-B and B-A permeability (Caco-2, pH 7.4/7.4). In kind it is in vitro ADME, human. Conditions: human; for recovery at 10 μM: Caco-2, Caco-2, 10 μM.
Source text: as §1

Data set [9] in a line: Cytotoxicity in human rhinovirus test.
Data set [10] concerns SARS-CoV-2 reporter virus d6-YFP (WT). Nature of the data set: microbe, parasite or virus in culture. In kind it is cell-based. To be noted: Severe acute respiratory syndrome coronavirus 2, Caco-2.
Data set [11] can be described thus: Mouse pharmacokinetics, female, deuteration matched pair analysis. In kind it is in vivo, mice (C57BL/6J). How it is done:
In another matched pair analysis the benefit of deuteration of the N-methoxyacetamide moiety was tested: the pharmacokinetic properties of the compounds were evaluated in 3 female mice (C57BL/6J, 8 week old) after oral or intravenous cassette dosing to assess the oral bioavailability. Dose was 5 mg/kg (oral) and 1 mg/kg (intravenous), application volume was 5 mL/kg (oral) and 2 mL/kg (intravenous), vehicle was 5% solutol, 95% NaCl solution (at 0.9% saline concentration) for oral and 5% solutol, 5% ethanol, 90% NaCl solution (at 0.9% saline concentration) for intravenous application. At each designated time point (0.25, 0.5, 1, 2, 4 and 8 h after dosing for oral; 0.083, 0.25, 0.5, 1, 4 and 8 h after dosing for intravenous), 20 μL whole blood were collected from the tail vein into Li-heparin tubes, frozen on dry ice within 1-2 minutes of sampling and stored at −20° C. until processed for LC-MS analysis.

Data set [12] in a line: Metabolic stability in rat liver microsomes. Conditions: SD. The text has this:
(§2) The metabolism was monitored by HPLC-MS/MS. Verapamil served as positive control.
In general terms: Microsomes from liver hold many membrane-bound enzymes, among them those of drug oxidation.

The nature of data set [13]: in vitro. The class given is cell-based. Conditions: human. The source says: (§3) The following results were obtained:
Data set [14] concerns RSV-A2. Kind of data set: Antiviral activity on RSV-A2 in Hep-2 cells. To be noted: human respiratory syncytial virus, HEp-2, 48 h, read-out: RSV-A2 IC50.
The nature of data set [15]: Metabolic stability in human liver microsomes.
Source text: as §2

Data set [16] has as its target N-terminally truncated recombinant hDHODH enzyme (Homo sapiens, UniProt Q02127). Nature of the data set: biochemical. Conditions: human DHODH assay; read-out: IC50 range. The class given is biochemical. The gist of the method:
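DCIP reduction followed at 600 nm for 2 min, with 60 μM 2,6-dichloroindophenol, 50 μM decylubiquinone and 100 μM dihydroorotate (reaction started with dihydroorotate). Buffer 50 mM TrisHCl, 150 mM KCl, 0.1% Triton X-100, pH 8.0, 30° C. IC50 from at least six compound concentrations.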

Data set [17] concerns RSV-Long. Kind of data set: Antiviral activity on RSV-Long in Hep-2 cells. In kind it is cell-based. To be noted: human respiratory syncytial virus, 48 h, two days after infection.
Source text: as §3

Data set [18] concerns RSV-B. Nature of the data set: Antiviral activity on RSV-B in Hep-2 cells. The class given is cell-based. To be noted: human respiratory syncytial virus, 48 h, two days after infection.
Source text: as §3

Data set [19] can be described thus: in vitro.

human URAT1 uptake transporter, sequence (Q96S37 whole entry): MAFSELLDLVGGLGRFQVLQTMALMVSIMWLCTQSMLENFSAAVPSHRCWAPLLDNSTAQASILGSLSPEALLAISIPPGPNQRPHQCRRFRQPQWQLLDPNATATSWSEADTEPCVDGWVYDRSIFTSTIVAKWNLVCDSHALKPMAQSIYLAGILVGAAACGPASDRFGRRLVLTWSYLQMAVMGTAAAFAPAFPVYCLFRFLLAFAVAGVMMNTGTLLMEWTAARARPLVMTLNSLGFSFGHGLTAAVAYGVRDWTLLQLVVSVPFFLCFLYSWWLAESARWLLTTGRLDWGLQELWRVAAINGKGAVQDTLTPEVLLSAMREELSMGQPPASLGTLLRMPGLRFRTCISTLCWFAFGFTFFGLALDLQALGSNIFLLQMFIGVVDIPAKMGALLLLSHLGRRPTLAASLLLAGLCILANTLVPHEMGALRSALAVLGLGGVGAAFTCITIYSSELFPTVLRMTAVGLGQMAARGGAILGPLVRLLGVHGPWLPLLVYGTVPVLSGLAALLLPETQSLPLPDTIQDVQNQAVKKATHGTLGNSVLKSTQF
N-terminally truncated recombinant hDHODH enzyme, sequence (Q02127 whole entry, looked up, the tested form may be a part): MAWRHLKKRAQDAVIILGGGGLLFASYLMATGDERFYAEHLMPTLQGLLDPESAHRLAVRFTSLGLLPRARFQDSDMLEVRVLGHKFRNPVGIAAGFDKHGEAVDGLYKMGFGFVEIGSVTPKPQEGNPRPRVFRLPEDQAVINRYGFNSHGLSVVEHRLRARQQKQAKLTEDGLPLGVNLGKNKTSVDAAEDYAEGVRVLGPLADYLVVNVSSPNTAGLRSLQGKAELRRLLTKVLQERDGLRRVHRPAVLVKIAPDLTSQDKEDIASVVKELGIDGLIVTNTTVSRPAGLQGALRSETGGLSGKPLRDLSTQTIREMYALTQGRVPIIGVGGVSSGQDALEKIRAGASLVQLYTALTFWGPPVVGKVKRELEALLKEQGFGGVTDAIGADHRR

Broadly, the solubility is how much of the substance goes into solution per volume. The term logD denotes the decadic logarithm of the distribution of all forms, ionised or not, between an organic phase and buffer at a given pH. Read a low logD as lower lipophilicity. Regarding `[2H]C([2H])([2H])Oc1cccc(-c2cc(F)c(NC(=O)C3=C(C(=O)NOC)CCC3)c(F)c2)c1` [Comparative Example C1, reference compound], in data set [1], the “human URAT1 uptake transporter stimulation @ 10 μM” value is 173%. Also, in [2], the A-B permeability stood at 0.068 ×10⁻⁶ cm/s and the B-A permeability amounted to 0.88 ×10⁻⁶ cm/s. This compound also returned a solubility in data set [3] of 220 µM (≈ 89.2 µg/mL). In addition, the logD in data set [4] amounted to 1.0.
The EC50 is the midpoint of the concentration-response curve. For orientation: AUC means the area under the concentration-time curve, a measure of exposure. Low readings indicate less exposure, high ones more exposure. For orientation: Cmax means the maximum level reached in the sampled fluid or tissue. Usually half-life stands for the time in which the quantity being followed falls by half. High values mean slow decline, low ones rapid decline. The term Papp A→B denotes the apparent permeability from the apical to the basolateral side of a cell layer. Read a low Papp A→B as poor permeation. In general, Papp B→A refers to the apparent permeability from the basolateral to the apical side of a cell layer. `[2H]C([2H])([2H])Oc1cccc(-c2cc(F)c(NC(=O)C3=C(C(=O)NOC)CCC3)c(F)c2)c1` [Example 4]: the EC50 in data set [5] was under 10000 nM; in data set [6] it was 2200 nM. In addition, the “human URAT1 uptake transporter stimulation @ 10 μM” value in data set [1] was found to be 26%. Further, the AUC worked out at 1210 ng·h/mL in data set [7] (female mice) and 1780 ng·h/mL in data set [7] (male mice). The Cmax worked out at 690 ng/mL in data set [7] (female mice) and 1110 ng/mL in data set [7] (male mice). Further, the results for the F entry in data set [7] (female mice) and in [7] (male mice) were “♀ 87%” and “♂ 63%”, respectively. The half-life was determined as 1.3 h in [7] (female) and 1.1 h in [7] (male). In addition, the recovery at 10 μM came out at 60% in data set [8] (A-B direction, read-out: recovery (A-B)) and 52% in [8] (B-A direction, read-out: recovery (B-A)). In [8] (Caco-2, 10 μM, pH 7.4/7.4), the Papp A→B at 10 μM was 1.6 ×10⁻⁶ cm/s. Also, the Papp B→A at 10 μM in data set [8] (Caco-2, 10 μM, pH 7.4/7.4) stood at 0.26 ×10⁻⁶ cm/s. In data set [9], the CC50 was over 25000 nM.
As usually defined, the AUC(0-t) is the area under the concentration-time curve up to a stated or last time point. What is called microsomal CLint is the capacity of the preparation to metabolise the compound, expressed as a volume cleared per time. Low values mean slow turnover, high ones rapid turnover. For orientation: IC50 means the concentration at which inhibition is half-maximal. In the case of `[2H]C([2H])([2H])Oc1cccc(-c2cc(F)c(NC(=O)c3ccsc3C(=O)NOC)c(F)c2)c1` [Example 9, N3-(3,5-Difluoro-3′-(methoxy-d3)-[1,1′-biphenyl]-4-yl)-N2-methoxythiophene-2,3-di-carboxamide], the EC50 in data set [5] was under 1000 nM; in data set [6] (HRV-14, read-out: EC50), 14 nM; in data set [10], 72 nM. In addition, the AUC(0-t) in [11] (C57BL/6J, mouse, in vivo, female mice, 0 to 8 h) is 12300 ng·h/mL. The peak level in data set [11] (C57BL/6J, mouse, in vivo, female mice, 5 mg/kg oral, 1 mg/kg intravenous cassette) (Cmax) was 3000 ng/mL. For the same compound, the F in data set [11] (female mice, bioavailability) was found to be 49%. The compound also had a half-life in data set [11] (female, C57BL/6J, mouse, in vivo) of 2.6 h. Also, the microsomal CLint amounted to 63.8 µL/min/mg in data set [12] (female), 183 µL/min/mg in data set [12] (male), 55.5 µL/min/mg in [15] (female) and 76.5 µL/min/mg in data set [15] (male). In data set [13], this compound gave a CC50 at 2 days of 45300 nM. The IC50 in data set [14], in data set [16], in data set [17] and in [18] was under 100 nM each time. In data set [9], this compound registered a CC50 of over 25000 nM.
Take `CCOC(=O)c1ccc(OCCC2CCN(c3ccc(C)nn3)CC2)cc1` [pirodavir]: the CC50 in [19] came out at 4500 nM. Further, the EC50 in data set [6] (HRV-14, read-out: EC50) was 0.3 nM.
